Reference: article PMC6010089, “Isothiocyanates: cholinesterase inhibiting, antioxidant, and anti-inflammatory activity” (Journal of Enzyme Inhibition and Medicinal Chemistry, 2018)
Like-named read-outs stand apart in the source and are kept apart here.

Columns and labels:
COX-2 [1] = target: T1, COX-2 (Homo sapiens, UniProt P35354); assay: Cayman human COX-2 inhibitor screening kit, PGF2alpha ELISA; type: biochemical; conditions: read-out: COX-2 / Inhibition (%)^b
T1 construct: gene PTGS2
T1 sequence (P35354 18-604): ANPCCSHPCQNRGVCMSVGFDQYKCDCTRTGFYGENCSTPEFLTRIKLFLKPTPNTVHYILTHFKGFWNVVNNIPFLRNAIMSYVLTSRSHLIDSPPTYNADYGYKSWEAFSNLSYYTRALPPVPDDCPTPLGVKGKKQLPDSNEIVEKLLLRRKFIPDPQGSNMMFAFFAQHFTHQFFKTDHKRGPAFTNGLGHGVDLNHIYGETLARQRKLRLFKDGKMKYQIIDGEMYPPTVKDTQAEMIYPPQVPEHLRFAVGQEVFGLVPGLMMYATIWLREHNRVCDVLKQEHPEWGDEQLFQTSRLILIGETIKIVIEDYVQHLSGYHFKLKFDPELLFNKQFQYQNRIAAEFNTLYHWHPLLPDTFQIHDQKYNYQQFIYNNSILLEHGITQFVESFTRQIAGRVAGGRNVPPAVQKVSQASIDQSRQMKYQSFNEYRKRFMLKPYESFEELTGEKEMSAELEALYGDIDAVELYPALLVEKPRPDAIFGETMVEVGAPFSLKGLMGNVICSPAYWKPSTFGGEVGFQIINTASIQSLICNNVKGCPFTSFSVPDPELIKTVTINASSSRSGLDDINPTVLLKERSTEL

[2] = target: T2, butyrylcholinesterase (BChE) (Equus caballus, UniProt P81908); assay: biochemical; conditions: read-out: BChE / Inhibition (%)^a
[3] = target: T3, acetylcholinesterase (AChE) (Electrophorus electricus, UniProt O42275); assay: biochemical; conditions: read-out: AChE / Inhibition (%)^a
[4] = target: T3, acetylcholinesterase (AChE); assay: modified Ellman assay; type: biochemical; set-up: electric eel, type V-S
[5] = target: T2, butyrylcholinesterase (BChE); assay: modified Ellman assay; type: biochemical; set-up: from equine serum
COX-2 [6] = target: T1, COX-2; assay: biochemical; set-up: COX-2 inhibitor screening kit, 10 min preincubation, arachidonic acid 2 min, PGF2alpha ELISA at 412 nm; conditions: read-out: COX-2 / Inhibition (%)^b
Method: To analyse the inhibition of the COX-2 enzyme activity mediated by the selected ITCs, the COX-2 (human) inhibitor screening assay kit from Cayman was used. In summary, the COX-2 enzyme was incubated with the samples (having final concentration in the assay of 50 μM, in 96% ethanol) for 10 min at 37 °C and subsequently the reaction was initiated by adding arachidonic acid and incubating the mixture for 2 min at 37 °C. The background tubes correspond to inactivated COX-2 enzyme obtained after keeping the tubes containing enzymes in boiling water for 3 min along with sample solvent. Enzyme catalysis was blocked by adding saturated stannous chloride solution. Prostaglandin (PGF2α) release was quantified using ELISA at 412 nm. Indomethacin solution (having final concentration in the assay of 10 μM, in 96% ethanol) was used as a positive control.

T3 sequence (O42275 24-633): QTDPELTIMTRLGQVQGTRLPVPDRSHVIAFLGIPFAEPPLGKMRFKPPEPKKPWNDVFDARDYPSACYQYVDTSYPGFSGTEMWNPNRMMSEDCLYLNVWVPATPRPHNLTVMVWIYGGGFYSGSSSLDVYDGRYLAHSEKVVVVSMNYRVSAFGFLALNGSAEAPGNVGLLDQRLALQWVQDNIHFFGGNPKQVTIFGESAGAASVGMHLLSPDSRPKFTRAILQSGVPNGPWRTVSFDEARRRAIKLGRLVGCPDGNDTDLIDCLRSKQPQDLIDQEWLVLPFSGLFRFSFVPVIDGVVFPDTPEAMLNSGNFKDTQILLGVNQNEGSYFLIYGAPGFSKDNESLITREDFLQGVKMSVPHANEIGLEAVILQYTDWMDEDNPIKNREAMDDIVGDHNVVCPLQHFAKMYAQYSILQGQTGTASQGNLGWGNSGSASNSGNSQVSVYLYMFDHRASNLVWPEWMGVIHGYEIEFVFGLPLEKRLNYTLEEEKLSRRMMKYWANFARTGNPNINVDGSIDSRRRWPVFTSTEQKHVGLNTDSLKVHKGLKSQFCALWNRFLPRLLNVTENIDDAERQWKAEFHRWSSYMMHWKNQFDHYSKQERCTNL
T2 sequence (P81908 whole entry): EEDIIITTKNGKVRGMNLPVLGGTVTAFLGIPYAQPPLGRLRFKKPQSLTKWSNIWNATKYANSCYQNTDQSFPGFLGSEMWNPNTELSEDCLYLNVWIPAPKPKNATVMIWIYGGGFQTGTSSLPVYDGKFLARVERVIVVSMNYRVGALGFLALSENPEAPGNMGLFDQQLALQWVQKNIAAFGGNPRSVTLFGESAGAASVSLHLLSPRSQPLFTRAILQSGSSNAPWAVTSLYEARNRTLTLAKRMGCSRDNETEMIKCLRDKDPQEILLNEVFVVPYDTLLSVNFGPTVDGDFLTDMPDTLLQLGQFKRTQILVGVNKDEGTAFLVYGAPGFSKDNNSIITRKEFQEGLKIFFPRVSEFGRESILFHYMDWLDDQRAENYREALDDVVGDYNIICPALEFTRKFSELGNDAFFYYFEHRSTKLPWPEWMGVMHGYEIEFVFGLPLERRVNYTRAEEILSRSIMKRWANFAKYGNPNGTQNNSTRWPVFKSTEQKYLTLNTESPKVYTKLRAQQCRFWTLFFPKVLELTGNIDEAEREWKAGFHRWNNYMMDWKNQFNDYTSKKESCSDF

Row | SMILES | inhibition at 50 µM (COX-2 [1]) [%] | inhibition at 1140 µM [2] [%] | inhibition at 1140 µM [3] [%] | IC50 ([4]; read-out: AChE / IC50) [µM] | IC50 [4] [µM] | inhibition at 1140 µM [5] [%] | inhibition at 50 µM (COX-2 [6]) [%]
1 | S=C=Nc1ccccc1 [compound 1, phenyl isothiocyanate] | 98.9 ± 0.3 |  |  |  |  |  | 
2 | CSCCCN=C=S [compound 11, 3-(Methylsulfanyl)propyl ITC] | 48 ± 0.3 | 15.4 ± 0.3 | 4.4 ± 0.7 |  |  |  | 
3 | COc1cccc(N=C=S)c1 [compound 8, 3-Methoxyphenyl ITC] |  |  | 61.4 ± 1.6 | 1000 |  |  | 
4 | COc1ccccc1N=C=S [compound 7, 2-Methoxyphenyl ITC] | 99 ± 0.7 | 19.5 ± 0.1 | 57 ± 1.5 | 570 |  |  | 
5 | Cc1ccc(N=C=S)cc1 [compound 5, 4-Methylphenyl ITC] |  |  | 58.4 ± 1.1 |  | 930 | 40.7 ± 0.7 | 13.6 ± 0.8
